The target in series [1] is T1, human Y5 receptor (hNPY-5) (Homo sapiens, UniProt Q15761).
T1 construct: expressed in transfected cells; host or cells: mouse fibroblast LM(tk-) cells, e.g. L-hY5-7 (ATCC CRL-11995)
T1 sequence (Q15761 1-445): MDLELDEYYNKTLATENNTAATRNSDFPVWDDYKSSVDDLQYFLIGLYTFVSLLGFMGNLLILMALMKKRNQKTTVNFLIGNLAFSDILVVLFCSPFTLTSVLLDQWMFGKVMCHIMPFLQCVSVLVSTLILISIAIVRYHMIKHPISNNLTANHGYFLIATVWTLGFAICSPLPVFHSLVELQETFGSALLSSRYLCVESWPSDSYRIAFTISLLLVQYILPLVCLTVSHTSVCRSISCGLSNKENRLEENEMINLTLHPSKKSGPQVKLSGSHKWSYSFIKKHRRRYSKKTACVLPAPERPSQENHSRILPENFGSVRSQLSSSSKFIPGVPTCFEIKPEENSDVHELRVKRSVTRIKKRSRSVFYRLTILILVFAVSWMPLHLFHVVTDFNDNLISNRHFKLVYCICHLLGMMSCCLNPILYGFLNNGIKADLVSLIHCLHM
In words: Radioligand binding to membranes, cloned human Y5 receptor. As to conditions: cloned human NPY Y5 receptor, radioligand competition binding; Tables 1-3; read-out: Ki, nM hNPY-5. A digest of the protocol:
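Competition binding on membranes from stably transfected 293 or LM(tk-) cells, with 0.08 nM ¹²⁵I-PYY in pH 7.4 HEPES buffer plus 0.1% BSA, 120 min at 30 °C, filtration and counting. Nonspecific binding defined by 300 nM human NPY, or 100 nM human PP for Y4; nonlinear regression.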

SMILES strings stand for the structures. Where a name gives a salt, the structure may show the parent alone.

Take `COc1ccc(C)cc1S(=O)(=O)NC[C@H]1CC[C@H](Nc2nc3c(s2)CCOc2ccccc2-3)CC1` (as salt: HCl) [Example 48, trans-1-Aza-4,5-dihydro-2-{4-(2-methoxy-5-methyl)phenyl-sulfonylaminomethyl}cyclohexylamino-6-oxa-3-thia-benzo[e]azulene]: the melting point (commonly the temperature, or range, at which the solid turns liquid) was 100 to 105 °C (dec.).

Compound `COCC(=O)N[C@H]1CC[C@H](CNc2nc3c(s2)CCOc2ccccc2-3)CC1` (as salt: HCl) [Example 84, N1-{4-[(4,5-dihydrobenzo[2,3]oxepino[4,5-d][1,3]thiazol-2-ylamino)methyl]cyclohexyl}-2-methoxyacetamide] returned a melting point of 234 to 237 °C.

As for `O=C1OCCN1C[C@H]1CC[C@H](Nc2nc3c(s2)CCCc2ccc(F)cc2-3)CC1` (as salt: HCl) [Example 79, 3-({4-[(9-fluoro-5,6-dihydro-4H-benzo[6,7]cyclohepta-[d][1,3]thiazol-2-yl)amino]cyclohexyl}methyl)-1,3-oxazolan-2-one], the melting point was 223 to 225 °C.

With `CCS(=O)(=O)N[C@H]1CC[C@H](CNc2nc3c(s2)CCOc2ccc(OC)cc2-3)CC1` [Example 64, trans-N2-(4-Ethylsulfonylamino)cyclohexylmethyl-9-methoxy-4,5-dihydro-benzo[2,3]oxepino[4,5-d][1,3]thiazol-2-amine], the melting point lay in the range of 165 to 170 °C. The Ki (in general, the equilibrium dissociation constant of an inhibitor or competing ligand from its target) in series [1] worked out at 12.2 nM.

Take `COc1ccc2c(c1)CCCc1sc(N[C@H]3CC[C@H](CNS(=O)(=O)N4CCOCC4)CC3)nc1-2` (as salt: hydrochloride) [Example 78, trans-N2-(4-(1-Morpholinylsulfonylaminomethyl)-cyclohexyl-8-methoxy-5,6-dihydro-4H-benzo[6,7]-cyclohepta[d][1,3]thiazol-2-amine hydrochloride]: the melting point was in the range of 130 to 132 °C.

Regarding `O=S(=O)(NCCCCCNc1nc2c(s1)CCCc1ccc(F)cc1-2)c1ccccc1F` (as salt: HCl) [Example 3, 1-Aza-9-fluoro-2-(5-(2-fluorophenyl)sulfonylamino)-pentylamino-4,5-dihydro-3-thia-benzo[e]azulene], the melting point lay in the range of 55 to 57 °C.

In turn, `CCS(=O)(=O)N[C@H]1CC[C@H](CNc2nc3c(s2)CCOc2cc(OC)ccc2-3)CC1` [Example 60, trans-N2-(4-Ethylsulfonylamino)cyclohexylmethyl-8-methoxy-4,5-dihydro-benzo[2,3]oxepino[4,5-d][1,3]thiazol-2-amine] had a melting point of 170 to 172 °C. Also, the Ki in series [1] stood at 31 nM.

In the case of `COCCN(C=O)[C@H]1CC[C@H](CNc2nc3c(s2)CCOc2ccccc2-3)CC1` (as salt: HCl) [Example 86, N-{4-[(4,5-dihydrobenzo[2,3]oxepino[4,5-d][1,3]thiazol-2-ylamino)methyl]cyclohexyl}-N-(2-methoxyethyl)formamide], the melting point was in the range of 164 to 166 °C.

`CS(=O)(=O)NCc1ccc(Nc2nc3c(s2)CCCc2ccc(F)cc2-3)cc1` [Example 90, N-{4-[(9-Fluoro-5,6-dihydro-4H-benzo[6,7]cyclohepta-[d][1,3]thiazol-2-yl)amino]benzyl}methanesulfonamide] came in with a melting point of 148 to 150 °C. For the same compound, the Ki in series [1] came to 5.7 nM.

The compound `CCOC(=O)N[C@H]1CC[C@H](CNc2nc3c(s2)CCCc2ccc(F)cc2-3)CC1` (as salt: hydrochloride) [Example 68, trans-N2-(4-Ethoxycarbonylamino)cyclohexylmethyl-9-fluoro-5,6-dihydro-4H-benzo[6,7]cyclohepta[d][1,3]-thiazol-2-amine hydrochloride] gave a melting point of 94 to 97 °C.

The compound `CS(=O)(=O)NCCOCCNc1nc2c(s1)CCCc1ccc(F)cc1-2` [Example 57, 1-Aza-9-fluoro-4,5-dihydro-2-{2-(2-methylsulfonyl-amino)ethoxy}ethylamino-3-thia-benzo[e]azulene] had a melting point of 159 to 162 °C. For the same compound, the Ki in series [1] worked out at 66 nM.

Consider `COc1ccc(C)cc1S(=O)(=O)NCCCCC(=O)Nc1nc2c(s1)CCCc1ccc(F)cc1-2` [Example 49, N1-(9-Fluoro-5,6-dihydro-4H-benzo[6,7]cyclohepta-[d][1,3]-thiazol-2-yl)-5-[(2-methoxy-5-methylphenyl)-sulfonyl]-aminopentanamide], for which the melting point lay in the range of 70 to 75 °C. Further, the Ki in series [1] was 2.9 nM.

The compound `COc1cccc2c1OCCc1sc(NC[C@H]3CC[C@H](NS(=O)(=O)N(C)C)CC3)nc1-2` (as salt: HCl) [Example 66, trans-1-Aza-4,5-dihydro-7-methoxy-2-{4-dimethylamino-sulfonylamino}cyclohexylmethylamino-6-oxa-3-thia-benzo[e]azulene] had a melting point of 206 to 208 °C.

In turn, `O=S(=O)(N[C@H]1CC[C@H](Nc2nc3c(s2)CCCc2ccc(F)cc2-3)CC1)c1cccnc1` (as salt: salt) [Example 54, trans-1-Aza-9-fluoro-4,5-dihydro-2-(4-(3-pyridyl-sulfonylamino)cyclohexyl)amino-3-thia-benzo[e]azulene] returned a melting point of 165 to 167 °C.

For the compound `COCC(=O)NCc1ccc(Nc2nc3c(s2)CCCc2ccc(F)cc2-3)cc1` (as salt: HCl) [Example 89, N1-{4-[(9-fluoro-5,6-dihydro-4H-benzo[6,7]cyclohepta-[d][1,3]thiazol-2-yl)amino]benzyl}-2-methoxyacetamide], the melting point is 175 to 178 °C.

In the case of `O=S(=O)(NC[C@H]1CC[C@H](Nc2nc3c(s2)CCCc2ccc(F)cc2-3)CC1)c1cccnc1` (as salt: salt) [Example 59, trans-1-Aza-9-fluoro-4,5-dihydro-2-(4-(3-pyridyl)-sulfonylaminomethyl)cyclohexylamino-3-thia-benzo[e]-azulene], the melting point fell in the range of 127 to 129 °C.

The compound `O=S(=O)(NCCCCNc1nc2c(s1)CCCc1ccc(F)cc1-2)c1cccnc1` (as salt: salt) [Example 56, 1-Aza-9-fluoro-4,5-dihydro-2-(4-(3-pyridyl)sulfonyl-amino)butylamino-3-thia-benzo[e]azulene] had a melting point of 101 to 103 °C.

`COc1ccc2c(c1)OCCc1sc(NC[C@H]3CC[C@H](NS(C)(=O)=O)CC3)nc1-2` [Example 61, trans-1-Aza-4,5-dihydro-8-methoxy-2-{4-methyl-sulfonyl-amino)cyclohexylmethylamino-6-oxa-3-thia-benzo [e]azulene] showed a melting point of 65 to 70 °C. Also, the Ki in series [1] came out at 162 nM.

In turn, `CC(C)S(=O)(=O)NCCOCCNc1nc2c(s1)CCCc1ccc(F)cc1-2` (as salt: HCl) [Example 69, 1-Aza-9-fluoro-4,5-dihydro-2-(2-(2-isopropyl-sulfonylamino)-ethoxy)ethylamino-3-thia-benzo[e]-azulene] showed a melting point of 50 to 55 °C.

`COc1ccc(C)cc1S(=O)(=O)N[C@H]1CC[C@H](CNc2nc3c(s2)CCOc2ccccc2-3)CC1` [Example 51, trans-1-Aza-4,5-dihydro-2-{4-(2-methoxy-5-methyl-phenyl)-sulfonylamino}cyclohexylmethylamino-6-oxa-3-thia-benzo[e]azulene] gave a melting point of 220 to 224 °C. In series [1], the Ki is 8.3 nM.

As for `CCCN(C=O)C[C@H]1CC[C@H](Nc2nc3c(s2)CCOc2ccccc2-3)CC1` [Example 85, N-{[4-(4,5-Dihydrobenzo[2,3]oxepino[4,5-d][1,3]-thiazol-2-ylamino)cyclohexyl]methyl}-N-propylformamide], the melting point fell in the range of 53 to 55 °C. For the same compound, the Ki in series [1] was 150 nM.

Regarding `O=S(=O)(CC(F)(F)F)NCCCCNc1nc2c(s1)CCCc1ccc(F)cc1-2` (as salt: TFA) [Example 39, 1-Aza-9-fluoro-4,5-dihydro-2-(4-(2,2,2-trifluoroethyl)-sulfonylamino)butylamino-3-thia-benzo[e]azulene], the melting point lay within 140 to 141 °C.

In turn, `O=S(=O)(N[C@H]1CC[C@H](CNc2nc3c(s2)CCCc2ccc(F)cc2-3)CC1)c1cccnc1` [Example 62, trans-1-Aza-9-fluoro-4,5-dihydro-2-{4-(3-pyridyl)sulfonylamino}cyclohexylmethylamino-3-thia-benzo[e]azulene] displayed a melting point of 158 to 160 °C. The Ki in series [1] turned out to be 1.8 nM.

On to `O=S(=O)(NCCCCCNc1nc2c(s1)CCCc1ccc(F)cc1-2)c1cccnc1` (as salt: salt) [Example 55, 1-Aza-9-fluoro-4,5-dihydro-2-(5-(3-pyridyl)sulfonyl-amino)pentylamino-3-thia-benzo[e]azulene], for which the melting point fell in the range of 84 to 86 °C.

As to `COc1ccc2c(c1)CCCc1sc(N[C@H]3CC[C@H](CNS(C)(=O)=O)CC3)nc1-2` [Example 72, trans-1-Aza-4,5-dihydro-8-methoxy-2-(4-methyl-sulfonylamino-methyl)cyclohexylamino-3-thia-benzo[e]azulene], the melting point fell in the range of 224 to 225 °C. Further, in series [1], the inhibition constant Ki was determined as 22 nM.

Values taken from patent US7273880B2, “Selective NPY (Y5) antagonists” (H. Lunbeck A/S, priority 1999, dated 2007).
